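Growth conditions: 96-well plates. Treatment: test compound, 48 hours, 5 concentrations. Analysis: linear interpolation between bracketing concentrations; unreached endpoints set to highest concentration. TGI marks complete inhibition of growth.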
What was measured:
Test in all cases: inhibition of tumour cell growth, NCI panel, 48 h
786-0 renal = tested on: 786-0 renal
A498 renal = tested on: A498 renal
A549 NSCLC = tested on: A549 NSCLC
ACHN renal = tested on: ACHN renal
BT-549 breast = tested on: BT-549 breast
CAKI-1 renal = tested on: CAKI-1 renal
CCRF-CEM leukemia = tested on: CCRF-CEM leukemia
COLO 205 colon = tested on: COLO 205 colon
EKVX NSCLC = tested on: EKVX NSCLC
HCT-116 colon = tested on: HCT-116 colon
HCT-15 colon = tested on: HCT-15 colon
HL-60(TB) leukemia = tested on: HL-60(TB) leukemia
HOP-62 NSCLC = tested on: HOP-62 NSCLC
HOP-92 NSCLC = tested on: HOP-92 NSCLC
HS 578T breast = tested on: HS 578T breast
HT29 colon = tested on: HT29 colon
IGROV1 ovarian = tested on: IGROV1 ovarian
K-562 leukemia = tested on: K-562 leukemia
KM12 colon = tested on: KM12 colon
LOX IMVI melanoma = tested on: LOX IMVI melanoma
M14 melanoma = tested on: M14 melanoma
MALME-3M melanoma = tested on: MALME-3M melanoma
MCF7 breast = tested on: MCF7 breast
MDA-MB-231 breast = tested on: MDA-MB-231 breast
MDA-MB-435 = tested on: MDA-MB-435
MDA-N = tested on: MDA-N
MOLT-4 leukemia = tested on: MOLT-4 leukemia
NCI-H226 lung = tested on: NCI-H226 lung
NCI-H23 lung = tested on: NCI-H23 lung
NCI-H460 lung = tested on: NCI-H460 lung
NCI-H522 lung = tested on: NCI-H522 lung
NCI/ADR-RES ovarian = tested on: NCI/ADR-RES ovarian
OVCAR-3 ovarian = tested on: OVCAR-3 ovarian
OVCAR-4 ovarian = tested on: OVCAR-4 ovarian
OVCAR-5 ovarian = tested on: OVCAR-5 ovarian
OVCAR-8 ovarian = tested on: OVCAR-8 ovarian
PC-3 prostate = tested on: PC-3 prostate
RPMI-8226 leukemia = tested on: RPMI-8226 leukemia
RXF 393 renal = tested on: RXF 393 renal
SF-268 CNS = tested on: SF-268 CNS
SF-295 CNS = tested on: SF-295 CNS
SF-539 CNS = tested on: SF-539 CNS
SK-MEL-2 melanoma = tested on: SK-MEL-2 melanoma
SK-MEL-28 melanoma = tested on: SK-MEL-28 melanoma
SK-MEL-5 melanoma = tested on: SK-MEL-5 melanoma
SK-OV-3 ovarian = tested on: SK-OV-3 ovarian
SNB-19 CNS = tested on: SNB-19 CNS
SNB-75 CNS = tested on: SNB-75 CNS
SR leukemia = tested on: SR leukemia
SW-620 colon = tested on: SW-620 colon
T-47D breast = tested on: T-47D breast
TK-10 renal = tested on: TK-10 renal
U251 CNS = tested on: U251 CNS
UACC-257 melanoma = tested on: UACC-257 melanoma
UACC-62 melanoma = tested on: UACC-62 melanoma
UO-31 renal = tested on: UO-31 renal

Measured: TGI

CC1CC(c2ccccc2)Nc2nc3ccccc3n21 (stereo unspecified)
> 100 µM: all assays above

Source: PubChem BioAssay (NCI)
